Laboratory results as given in patent US20150056209A1, “PEPTIDE MIMOTOPES TO OXIDATION SPECIFIC EPITOPES” (The Regents of the University of California, priority 2012, published 2015).
Bridges are numbered along the chain shown (N, C = ends). Where no end group is shown, it is not given here.

Key:
LRO4 [1] = experiment: Competition immunoassays for LRO4 binding; design: species or system murine; settings: 0.5 μg/mL LRO4, increasing concentrations of soluble competitor; for competition for LRO4 binding to captured biotinylated P1: 100 ng/mL captured P1; for competition for LRO4 binding to captured biotinylated P2: 100 ng/mL captured P2; for competition for LRO4 binding to coated MAA-BSA: 0.5 μg/mL coated MAA-BSA
Procedure: (§1) The specific binding of LRO4 to mimotopes was determined by competition immunoassays. Fifty μl of 0.5 μg/mL MAA-BSA or 100 ng/mL of biotinylated peptides were plated as described above. LRO4 antibody was incubated in TBS-1% BSA with or without increasing concentrations of competitors (BSA, MAA-BSA, P1, P2 and control peptide) for 30 minutes at RT. Binding of LRO4 was determined by chemiluminescent ELISA. The specificity of human plasma Ab binding to P1 was determined in a similar manner. In preliminary experiments, aliquots of pooled plasma samples (n=26) from a published cohort of healthy subjects were diluted in 1% BSA-TBS to yield a limiting plasma dilution. Diluted plasma (1:1,000) and increasing concentrations of competitors were incubated overnight at 4° C. Samples were then centrifuged at 15,800 g for 45 minutes at 4° C. to pellet immune complexes, and supernatants were analyzed for binding to plated P1 (10 μg/mL) by chemiluminescent ELISA.

[2] = test system: human MDA-specific IgG Fab IK17; experiment: ELISA for binding of the human monoclonal Fab IK17; settings: antigens coated; biotinylated IK17 at increasing concentrations
Procedure: ELISA for binding of the human monoclonal Fab IK17. P1, P2, and MAA-BSA were coated onto microtiter plates, and biotinylated IK17 (Biot.IK17) was added at indicated concentrations. Binding was detected by chemiluminescent detection using AP-conjugated neutravidin. Values are given as relative light units (RLU) per 100 ms and represent the mean±SD of triplicate determinations.
(§2) Binding of mAb as well as plasma Abs to respective antigens was measured by chemiluminescent ELISA. Antigens were coated at 5 μg/mL in PBS/EDTA (pH 7.4). Synthetic peptides were directly coated at 10 μg/mL (P1) or 5 μg/mL (P2) in 0.1M NaHCO3 buffer (pH 8.6), unless indicated differently. Biotinylated peptides were immobilized at indicated concentrations in 0.1M NaHCO3 buffer (pH 8.6) on wells pre-coated with 10 μg/mL neutravidin (Pierce, Rockford, Ill., USA). Ab binding was measured using alkaline phosphatase (AP) labeled secondary Abs (described below) followed by chemiluminescent detection. For the detection of human autoAbs, a 1:400 plasma dilution was used. For human assays, internal controls consisting of high and low standard plasma samples were included on each microtiter plate to detect potential variations between microtiter plates. The intra-assay coefficients of variation for all assays were 10 to 14%.
(§3) The following secondary Abs were used: Alkaline Phosphatase (AP)-labeled goat anti-mouse IgM (μ-chain specific), IgG (γ-chain specific), IgG1 (Sigma-Aldrich) and IgG2c (Southern Biotech). For the detection of human autoAbs AP-labeled goat anti human IgG (γ-chain specific) and IgM (μ-chain specific) (Sigma-Aldrich) were used. Biotin-conjugated Abs were detected with AP-conjugated neutravidin (1:10,000; Pierce).

LRO4 [3] = experiment: Chemiluminescent ELISA, binding of LRO4 to plated or captured peptides; design: species or system murine; settings: peptides directly plated at increasing concentrations; LRO4 5 μg/mL
Procedure: as §2, §3

apoptotic Jurkat T-cells = experiment: Flow cytometry, LRO4 binding to apoptotic Jurkat T-cells; type: cell-based; settings: UV-induced apoptotic Jurkat T-cells; increasing concentrations of soluble peptide
Procedure: Binding of LRO4 IgM to apoptotic Jurkat T-cells was assessed by flow cytometry. Apoptosis of Jurkat cells was induced by UV irradiation (UV Stratalinker, Stratagene, USA) at 20 mJ/cm^2, followed by further incubation of the cells in serum free medium for 14-16 hours. After washing in FACS buffer (PBS with 0.1% BSA) 10^6 cells were incubated with 1 μg LRO4 in 100 μl FACS buffer for 30 minutes at 4° C. In parallel experiments, cells were incubated with LRO4 in the presence of increasing concentrations of P1, P2, and an irrelevant control peptide. Following a washing step, cells were stained with FITC-labeled anti-mouse IgM (II/41, BD Biosciences-Pharmingen) in 100 μL staining buffer for 30 minutes at 4° C. in darkness and washed again. Thereafter, cells were incubated with PE-labeled Annexin-V and 7-AAD (BD Bioscience-Pharmingen) in Annexin-V binding buffer for 15 minutes and immediately analyzed by flow cytometry using a BD LSR II analyzer (BD Bioscience, San Jose, Calif., USA). More than 5.0×10^4 cells were acquired per sample, and data analysis was performed using FlowJo software (Tree Star Inc, San Carlos, Calif., USA).

PC-specific IgM mAb EO6 = experiment: Chemiluminescent ELISA, binding of EO6 to plated peptides; design: species or system murine; settings: EO6 5 μg/mL; peptides coated at 5-10 μg/mL
Procedure: (A) ELISA for the binding of LRO4 to BSA, MAA-BSA, the P2 mimotope (ACNNSNMPLC-GGGS) (SEQ ID NO:3) and a scrambled peptide (ACSPNLNMNC-GGGS) (SEQ ID NO:4) of P2 (Scr.P2). Peptides were coated at 20 μg/ml, BSA and MAA-BSA at 5 μg/ml, and binding of indicated concentrations of LRO4 was determined by chemiluminescent ELISA as described in Methods. (B) ELISA for binding of LRO4 and EO6. P1, P2, BSA, MAA-BSA, nLDL, MDA-LDL, and CuOx-LDL were coated at 5-10 μg/mL. Binding of LRO4 and EO6 (both at 5 μg/mL) was determined by chemiluminescent ELISA. (C) Immunocompetition assay for the specificity of LRO4. Binding of 0.5 μg/mL LRO4 to 100 ng/mL captured biotinylated peptides P2 was measured by ELISA in the presence of increasing concentrations of P2 and scrambled P2. […]
Binding of mAb as well as plasma Abs to respective antigens was measured by chemiluminescent ELISA. […] Ab binding was measured using alkaline phosphatase (AP) labeled secondary Abs (described below) followed by chemiluminescent detection. […]

[4] = test system: human plasma IgG and IgM autoAbs; experiment: Chemiluminescent ELISA of human plasma autoAbs to coated mimotopes; type: binding; settings: n=18 healthy volunteers, plasma 1:400
Procedure: as §2, with “For human assays, internal controls consisting of high and low standard plasma samples were included on each microtiter plate to detect potential variations between microtiter plates. The intra-assay coefficients of variation for all assays were 10 to 14%.” left out
The following secondary Abs were used: Alkaline Phosphatase (AP)-labeled goat anti-mouse IgM (μ-chain specific), IgG (γ-chain specific), IgG1 (Sigma-Aldrich) and IgG2c (Southern Biotech). […] Biotin-conjugated Abs were detected with AP-conjugated neutravidin (1:10,000; Pierce).
Human plasma samples from two independent studies were analyzed for the presence of anti-peptide Abs. […] For these studies, autoAb titers to MDA-LDL as the antigen have already been reported, to allow ready comparisons to the new data generated here. […]
Statistical analyses were performed with GraphPad Prism 5 for Windows (Graphpad Software, Inc., San Diego, Calif.). […] For continuous variables, differences were evaluated by one-way analysis of variances (ANOVA). […]

[5] = test system: human plasma IgM and IgG Abs; experiment: Immunocompetition assay, human plasma Ab binding to plated P1; settings: pooled human plasma 1:1,000; increasing concentrations of soluble competitor
Procedure: as §1

| competition for LRO4 binding to captured biotinylated P1 (LRO4 [1]) | competition for LRO4 binding to captured biotinylated P2 (LRO4 [1]) | competition for LRO4 binding to coated MAA-BSA (LRO4 [1]) | binding of IK17 [2] | binding of LRO4 to plated peptides (LRO4 [3]) | binding of EO6 to plated peptides (PC-specific IgM mAb EO6) | inhibition of binding of IgM and IgG Abs to plated P1 [5] | Substance | inhibition of LRO4 binding to apoptotic cells (apoptotic Jurkat T-cells) | IgG and IgM titers in plasma of healthy volunteers [4] |
| --- | --- | --- | --- | --- | --- | --- | --- | --- | --- |
| fully competed | fully competed | effectively competed | in a dose-dependent manner | bound by LRO4 in a dose dependent manner | did not react |  | ACNNSNMPLC (disulfide 2-10 (inferred); not fully specified (C-terminus)) [P2] | fully inhibited | Plasma of all individuals contained both IgG and IgM titers |
| did not compete | did not compete | did not have an effect | in a dose-dependent manner | bound by LRO4 in a dose dependent manner | did not react |  | HSWTNSWMATFL (not fully specified (C-terminus)) [P1] |  | Plasma of all individuals contained both IgG and IgM titers |
| had no effect | had no effect |  |  |  |  |  | IMGVGAVGAGAI (Control peptide) [irrelevant control peptide, reference compound] | not |  |
| fully competed | fully competed | effectively competed | bound |  |  | nearly completely inhibited | MAA-BSA: malondialdehyde-acetaldehyde (MAA)-modified BSA [reference compound] |  |  |
